Test results as given in patent US9204653B2, “5-fluoro pyrimidine derivatives” (DOW AGROSCIENCES LLC, priority 2008, dated 2015).
Like-named read-outs stand apart in the source and are kept apart here.

Tested on: Mycosphaerella graminicola; Anamorph: Septoria tritici; Bayer Code SEPTTR
Experiment: Leaf blotch of wheat, foliar fungicide treatment, one day protectant (1DP) or three day curative (3DC)
Assay type: in vivo, Septoria tritici on wheat plants (variety Yuma)
Conditions: Zymoseptoria tritici; for pest or weed control at 50 ppm / pest or weed control at 200 ppm: % disease control rating
[1] = 24 h, one day protectant (1DP), 25 ppm (first 1DP column), percent control rating, read-out: SETTTR 1DP 25 ppm
[2] = 24 h, one day protectant (1DP), 25 ppm as printed (second 1DP column), percent control rating, read-out: SETTTR 1DP 25 ppm
[3] = 72 h, three day curative (3DC), 25 ppm, percent control rating, read-out: SEPTTR 3DC 25 ppm
[4] = 72 h, three day curative (3DC), percent control rating, read-out: SEPTTR 3DC 100 ppm
[5] = 24 h, one day protectant (1DP), 25 ppm, percent disease control rating, read-out: SETTTR 1DP 25 ppm
[6] = 24 h, one day protectant (1DP), percent disease control rating, read-out: SEPTTR 1DP 100 ppm
[7] = 72 h, three day curative (3DC), 25 ppm, percent disease control rating, read-out: SEPTTR 3DC 25 ppm
[8] = 72 h, three day curative (3DC), percent disease control rating, read-out: SEPTTR 3DC 100 ppm
[9] = 24 h, one day protectant (1DP), 25 ppm, rating of percent disease control, read-out: SETTTR 1DP 25 ppm
[10] = 24 h, one day protectant (1DP), rating of percent disease control, read-out: SEPTTR 1DP 100 ppm
[11] = 72 h, three day curative (3DC), 25 ppm, rating of percent disease control, read-out: SEPTTR 3DC 25 ppm
[12] = 72 h, three day curative (3DC), rating of percent disease control, read-out: SEPTTR 3DC 100 ppm
[13] = 24 h, one day protectant, 25 ppm, rating of percent disease control, read-out: SETTTR 1DP 25 ppm
[14] = 24 h, one day protectant, rating of percent disease control, read-out: SEPTTR 1DP 100 ppm
[15] = 72 h, three day curative, 25 ppm, rating of percent disease control, read-out: SEPTTR 3DC 25 ppm
[16] = 72 h, three day curative, rating of percent disease control, read-out: SEPTTR 3DC 100 ppm

## O=CNc1nc(OCOC(=O)C2CCCC2)ncc1F [Compound 1126]
[1]
  pest or weed control at 25 ppm: 76 to 100%
[2]
  pest or weed control at 25 ppm: 76 to 100%
[3]
  pest or weed control at 25 ppm: 76 to 100%
[4]
  pest or weed control at 100 ppm: 76 to 100%

## O=S(=O)(Nc1nc(O)ncc1F)c1ccccc1 [Compound 956, N-(5-Fluoro-2-hydroxypyrimidin-4-yl)benzenesulfonamide]
[1]
  pest or weed control at 25 ppm: 0 to 25%
[2]
  pest or weed control at 25 ppm: 0 to 25%
[3]
  pest or weed control at 25 ppm: 0 to 25%
[4]
  pest or weed control at 100 ppm: 0 to 25%

## CCOC(=O)COC(=O)Nc1nc(OCc2ccccc2)ncc1F [Compound 134]
[5]
  pest or weed control at 25 ppm: 0 to 25%
[6]
  pest or weed control at 100 ppm: 51 to 75%
[7]
  pest or weed control at 25 ppm: 51 to 75%
[8]
  pest or weed control at 100 ppm: 76 to 100%

## CCOCNc1nc(OC(C)c2ccc(F)cc2)ncc1F (stereo not drawn) [Compound 379]
[9]
  pest or weed control at 25 ppm: 76 to 100%
[10]
  pest or weed control at 100 ppm: 76 to 100%
[11]
  pest or weed control at 25 ppm: 51 to 75%
[12]
  pest or weed control at 100 ppm: 76 to 100%

## Cc1cc(C)nc(NNc2nc(OCc3ccccc3)ncc2F)n1 [Compound 470]
[9]
  pest or weed control at 25 ppm: 0 to 25%
[10]
  pest or weed control at 100 ppm: 0 to 25%
[11]
  pest or weed control at 25 ppm: 26 to 50%
[12]
  pest or weed control at 100 ppm: 26 to 50%

## COc1cccc(COc2ncc(F)c(OC)n2)c1 [Compound 269]
[9]
  pest or weed control at 25 ppm: 0 to 25%
[10]
  pest or weed control at 100 ppm: 0 to 25%
[11]
  pest or weed control at 25 ppm: 0 to 25%
[12]
  pest or weed control at 100 ppm: 0 to 25%

## C=CCOC(=O)Oc1ncc(F)c(/N=C/N(C)C)n1 [Compound 647]
[13]
  pest or weed control at 25 ppm: 76 to 100%
[14]
  pest or weed control at 100 ppm: 76 to 100%
[15]
  pest or weed control at 25 ppm: 76 to 100%
[16]
  pest or weed control at 100 ppm: 76 to 100%

## CC(C)Oc1ccc(COc2ncc(F)c(N)n2)cc1 [Compound 783]
[9]
  pest or weed control at 25 ppm: 76 to 100%
[10]
  pest or weed control at 100 ppm: 76 to 100%
[11]
  pest or weed control at 25 ppm: 76 to 100%
[12]
  pest or weed control at 100 ppm: 76 to 100%

## CC[Si](CC)(CC)Nc1nc(OCCc2ccc(Cl)cc2)ncc1F [Compound 507]
[9]
  pest or weed control at 25 ppm: 51 to 75%
[10]
  pest or weed control at 100 ppm: 76 to 100%
[11]
  pest or weed control at 25 ppm: 0 to 25%
[12]
  pest or weed control at 100 ppm: 76 to 100%

## CC#CCOc1ncc(F)c(NC(C)=O)n1 [Compound 745]
[9]
  pest or weed control at 25 ppm: 76 to 100%
[10]
  pest or weed control at 100 ppm: 76 to 100%
[11]
  pest or weed control at 25 ppm: 76 to 100%
[12]
  pest or weed control at 100 ppm: 76 to 100%

## CN(C)/C=N/c1nc(OS(C)(=O)=O)ncc1F [Compound 131]
[5]
  pest or weed control at 25 ppm: 26 to 50%
[6]
  pest or weed control at 100 ppm: 51 to 75%
[7]
  pest or weed control at 25 ppm: 26 to 50%
[8]
  pest or weed control at 100 ppm: 76 to 100%

## N#CNc1nc(OCc2ccccc2)ncc1F [Compound 963, 2-Benzyloxy-5-fluoro-pyrimidin-4-yl-cyanamide]
[1]
  pest or weed control at 25 ppm: 0 to 25%
[2]
  pest or weed control at 25 ppm: 0 to 25%
[3]
  pest or weed control at 25 ppm: 26 to 50%
[4]
  pest or weed control at 100 ppm: 0 to 25%

## Fc1ccccc1CNc1nc(OCc2ccco2)ncc1F [Compound 817]
24 h, one day protectant
  pest or weed control at 50 ppm: 26 to 50%
  pest or weed control at 200 ppm: 76 to 100%

## O=C(Nc1nc(OCc2ccccc2)ncc1F)OCc1ccccc1 [Compound 298]
[9]
  pest or weed control at 25 ppm: 76 to 100%
[10]
  pest or weed control at 100 ppm: 76 to 100%
[11]
  pest or weed control at 25 ppm: 76 to 100%
[12]
  pest or weed control at 100 ppm: 76 to 100%

## Nc1nc(OCc2cc(F)c(F)c(F)c2F)ncc1F [Compound 693]
[13]
  pest or weed control at 25 ppm: 76 to 100%
[14]
  pest or weed control at 100 ppm: 76 to 100%
[15]
  pest or weed control at 25 ppm: 76 to 100%
[16]
  pest or weed control at 100 ppm: 76 to 100%

## Fc1cnc(OCC(F)(F)F)nc1NCc1ccc(Cl)cc1 [Compound 905]
24 h, one day protectant
  pest or weed control at 50 ppm: 26 to 50%
  pest or weed control at 200 ppm: 51 to 75%

## CC(=O)Nc1nc(O/N=C(\C)c2ccccc2)ncc1F [Compound 616]
[13]
  pest or weed control at 25 ppm: 76 to 100%
[14]
  pest or weed control at 100 ppm: 76 to 100%
[15]
  pest or weed control at 25 ppm: 76 to 100%
[16]
  pest or weed control at 100 ppm: 76 to 100%

## Cc1ccc(COc2ncc(F)c(N3CCOCC3)n2)cc1 [Compound 836]
24 h, one day protectant
  pest or weed control at 50 ppm: 51 to 75%
  pest or weed control at 200 ppm: 76 to 100%

## COCCCOc1ncc(F)c(NC(=O)Nc2ccsc2)n1 [Compound 159]
[5]
  pest or weed control at 25 ppm: 0 to 25%
[6]
  pest or weed control at 100 ppm: 0 to 25%
[7]
  pest or weed control at 25 ppm: 26 to 50%
[8]
  pest or weed control at 100 ppm: 0 to 25%

## OCNc1nc(OCc2ccccc2)ncc1F [Compound 677]
[13]
  pest or weed control at 25 ppm: 76 to 100%
[14]
  pest or weed control at 100 ppm: 76 to 100%
[15]
  pest or weed control at 25 ppm: 76 to 100%
[16]
  pest or weed control at 100 ppm: 76 to 100%

## Cn1ccc(COc2ncc(F)c(NC(=O)NCc3ccccc3F)n2)n1 [Compound 64]
[5]
  pest or weed control at 25 ppm: 0 to 25%
[6]
  pest or weed control at 100 ppm: 0 to 25%
[7]
  pest or weed control at 25 ppm: 0 to 25%
[8]
  pest or weed control at 100 ppm: 26 to 50%

## Cc1noc(-c2ccccc2COc2ncc(F)c(N)n2)n1 [Compound 486]
[9]
  pest or weed control at 25 ppm: 0 to 25%
[10]
  pest or weed control at 100 ppm: 0 to 25%
[11]
  pest or weed control at 25 ppm: 26 to 50%
[12]
  pest or weed control at 100 ppm: 26 to 50%

## Cc1cccc(Oc2ccc(COc3ncc(F)c(N)n3)cc2)c1 [Compound 716]
[13]
  pest or weed control at 25 ppm: 76 to 100%
[14]
  pest or weed control at 100 ppm: 76 to 100%
[15]
  pest or weed control at 25 ppm: 76 to 100%
[16]
  pest or weed control at 100 ppm: 76 to 100%

## COc1cccc(COc2ncc(F)c(N/N=C\c3nc(C)cs3)n2)c1 [Compound 148]
[5]
  pest or weed control at 25 ppm: 51 to 75%
[6]
  pest or weed control at 100 ppm: 51 to 75%
[7]
  pest or weed control at 25 ppm: 0 to 25%
[8]
  pest or weed control at 100 ppm: 0 to 25%

## Cc1ccc(COc2ncc(F)c(-n3ccnc3)n2)cc1 [Compound 681]
[13]
  pest or weed control at 25 ppm: 76 to 100%
[14]
  pest or weed control at 100 ppm: 76 to 100%
[15]
  pest or weed control at 25 ppm: 76 to 100%
[16]
  pest or weed control at 100 ppm: 76 to 100%

## COc1ccc(OC)c(COc2ncc(F)c(N)n2)c1 [Compound 351]
[9]
  pest or weed control at 25 ppm: 76 to 100%
[10]
  pest or weed control at 100 ppm: 76 to 100%
[11]
  pest or weed control at 25 ppm: 76 to 100%
[12]
  pest or weed control at 100 ppm: 76 to 100%

## COc1cccc(COc2ncc(F)c(N3CCCCC3)n2)c1 [Compound 407]
[9]
  pest or weed control at 25 ppm: 0 to 25%
[10]
  pest or weed control at 100 ppm: 0 to 25%
[11]
  pest or weed control at 25 ppm: 0 to 25%
[12]
  pest or weed control at 100 ppm: 0 to 25%

## CCCCOc1cc(COc2ncc(F)c(N)n2)ccc1OC [Compound 650]
[13]
  pest or weed control at 25 ppm: 76 to 100%
[14]
  pest or weed control at 100 ppm: 76 to 100%
[15]
  pest or weed control at 25 ppm: 76 to 100%
[16]
  pest or weed control at 100 ppm: 76 to 100%

## CCOC(=O)Nc1nc(OCc2cccc(OC)c2)ncc1F [Compound 276]
[9]
  pest or weed control at 25 ppm: 76 to 100%
[10]
  pest or weed control at 100 ppm: 76 to 100%
[11]
  pest or weed control at 25 ppm: 76 to 100%
[12]
  pest or weed control at 100 ppm: 76 to 100%

## Nc1nc(Oc2ccc(Cl)nc2)ncc1F [Compound 549]
[9]
  pest or weed control at 25 ppm: 26 to 50%
[10]
  pest or weed control at 100 ppm: 0 to 25%
[11]
  pest or weed control at 25 ppm: 0 to 25%
[12]
  pest or weed control at 100 ppm: 0 to 25%

## COc1cccc(COc2ncc(F)c(NOC3CCCCO3)n2)c1 (stereo not drawn) [Compound 652]
[13]
  pest or weed control at 25 ppm: 0 to 25%
[14]
  pest or weed control at 100 ppm: 51 to 75%
[15]
  pest or weed control at 25 ppm: 0 to 25%
[16]
  pest or weed control at 100 ppm: 76 to 100%

## O=C(Nc1ccccc1F)Nc1nc(OCc2cccs2)ncc1F [Compound 799]
[9]
  pest or weed control at 25 ppm: 0 to 25%
[10]
  pest or weed control at 100 ppm: 0 to 25%
[11]
  pest or weed control at 25 ppm: 0 to 25%
[12]
  pest or weed control at 100 ppm: 0 to 25%

## CN(C)/C=N/c1nc(OC(=O)c2cccc(Cl)c2)ncc1F [Compound 484]
[9]
  pest or weed control at 25 ppm: 76 to 100%
[10]
  pest or weed control at 100 ppm: 76 to 100%
[11]
  pest or weed control at 25 ppm: 76 to 100%
[12]
  pest or weed control at 100 ppm: 76 to 100%

## Nc1nc(OCc2cccc(Oc3ccccc3)c2)ncc1F [Compound 878]
24 h, one day protectant
  pest or weed control at 50 ppm: 76 to 100%
  pest or weed control at 200 ppm: 76 to 100%

## Oc1ncc(F)c(NOCc2ccccc2)n1 [Compound 1095]
[1]
  pest or weed control at 25 ppm: 0 to 25%
[2]
  pest or weed control at 25 ppm: 0 to 25%
[3]
  pest or weed control at 25 ppm: 0 to 25%
[4]
  pest or weed control at 100 ppm: 0 to 25%
